Laboratory results as given in patent publication US8481456B2 (priority 2009, dated 2013).
Read-outs that look alike come from different tables or passages of the source.

Columns and labels:
[1] = test system: Phytophthora infestans; experiment: whole plant or invertebrate; format: in vivo; settings: 3 days after the inoculation; for pest or weed control at 200 ppm: 200 ppm a.i.; for pest or weed control at 50 ppm: 50 ppm a.i.
[2] = test system: Green peach aphid (Myzus persicae); experiment: Myzus persicae test; format: in vivo; settings: for mortality at 0.8 ppm: 0.8 ppm a.i.; for mortality at 200 ppm: 200 ppm a.i.
Protocol: Cabbage leaves (Brassica oleracea) which are heavily infested by the Green peach aphid (Myzus persicae) are treated by being sprayed into the preparation of the active compound of the desired concentration. After the specified period of time, the mortality in % is determined. 100% means that all the aphids have been killed; 0% means that none of the aphids have been killed.

[3] = test system: Botrytis cinerea; experiment: Botrytis test (beans)/preventive; settings: 2 days after the inoculation
[4] = test system: larvae of the mustard beetle (Phaedon cochleariae); experiment: Phaedon cochleariae larvae test; format: in vivo; settings: for mortality at 200 ppm: 200 ppm a.i.
Protocol: (§1) Cabbage leaves (Brassica oleracea) are treated by being sprayed into the preparation of the active compound of the desired concentration and are infested with larvae of the mustard beetle (Phaedon cochleariae) as long as the leaves are still moist. After the specified period of time, the mortality in % is determined. 100% means that all the beetle larvae have been killed; 0% means that none of the beetle larvae have been killed.

[5] = test system: Alternaria solani; experiment: Alternaria test (tomatoes)/preventive; format: in vivo; settings: for pest or weed control at 200 ppm / pest or weed control at 100 ppm: read-out: Efficacy in %, found; for pest or weed control at 12.5 ppm: 12.5 ppm a.i.; for pest or weed control at 25 ppm: 25 ppm a.i.
[6] = test system: Pyrenophora teres; experiment: Pyrenophora teres test (barley)/preventive; format: in vivo; settings: 8 days after the inoculation
[7] = test system: apple scab (Venturia inaequalis); experiment: Venturia test (apples)/preventive; settings: for Efficacy in %, found: Table L2, 10 days after the inoculation
[8] = test system: Fusarium nivale (var. majus); experiment: Fusarium nivale (var. majus)-test (wheat)/preventive; settings: 5 days after the inoculation
[9] = test system: larvae of the diamondback moth (Plutella xylostella); experiment: Plutella xylostella test; format: in vivo; settings: for mortality at 200 ppm: 200 ppm a.i.
Protocol: as §1, with “diamondback moth (Plutella xylostella)” for “mustard beetle (Phaedon cochleariae)”, “caterpillars” for “beetle larvae”

[10] = test system: Septoria tritici; experiment: Septoria tritici test (wheat)/preventive; format: in vivo; settings: 21 days after the inoculation
[11] = test system: larvae of the fall army worm (Spodoptera frugiperda); experiment: Spodoptera frugiperda test/seed application; format: in vivo; settings: corn seed treatment
Protocol: 14 days after sowing the leaves were cut off and infested with larvae of the fall army worm (Spodoptera frugiperda). After the specitied period of time, the mortality in % is determined. 100% means that all the caterpillars have been killed; 0% means that none of the caterpillars have been killed.

[12] = test system: Fusarium graminearum; format: in vivo; settings: 1000 ppm a.i.; 5 days after the inoculation
[13] = Phytophthora infestans, 72 h, read-out: Efficacy in %, found, Table I1
[14] = 72 h, read-out: Mortality in % after 3 d, found
[15] = Phytophthora infestans, 72 h, read-out: Efficacy in %, found, Table I1, 100 ppm a.i.
[16] = Venturia inaequalis, 240 h, read-out: Efficacy in %, found
[17] = 72 h, 4 ppm a.i., after 3 d, read-out: Mortality in % after 3 d, found
[18] = Phytophthora infestans, 72 h, read-out: Efficacy in %, found, Table I2
[19] = 24 h, after 1 d, read-out: Mortality in % after 1 d, found
[20] = 48 h, after 2 d, read-out: Mortality in % after 2 d, found
[21] = Alternaria solani, 72 h, read-out: Efficacy in %, found, Table E1, 3 days after the inoculation
[22] = Alternaria solani, 72 h, read-out: Efficacy in %, found, Table E2, 3 days after the inoculation
[23] = 72 h, after 3 d, read-out: Mortality in % after 3 d, found

Compound: C/C(=N\C#N)N(C)Cc1ccc(Cl)nc1 [(4A.1), acetamiprid]
- pest or weed control at 200 ppm [1, 13]: 27%
- mortality at 4 ppm ([2]; 24 h, read-out: Mortality in % after 1 d, found): 10%
- Efficacy in %, found ([3]; 100 ppm a.i.): 0%
- mortality at 4 ppm [4, 14]: 0%

Compound: CN1COCN(Cc2cnc(Cl)s2)/C1=N\[N+](=O)[O-] [(4A.7), thiamethoxam]
- pest or weed control at 200 ppm ([5]; Alternaria solani, 72 h, Table E1, 200 ppm a.i., 3 days after the inoculation): 64%
- Efficacy in %, found ([6]; Table J1, 1000 ppm a.i.): 0%
- pest or weed control at 100 ppm [1, 15]: 30%
- pest or weed control at 100 ppm [7, 16]: 18%
- pest or weed control at 200 ppm [7, 16]: 25%
- Efficacy in %, found ([3]; 100 ppm a.i.): 0%

Compound: N#C/N=C1\SCCN1Cc1ccc(Cl)nc1 [(4A.6), thiacloprid]
- pest or weed control at 100 ppm ([5]; Alternaria solani, 72 h): 13%
- Efficacy in %, found ([8]; 1000 ppm a.i.): 0%
- pest or weed control at 100 ppm [1, 15]: 16%
- pest or weed control at 200 ppm [7, 16]: 4%
- mortality at 4 ppm ([2]; 4 ppm a.i., after 4 h, read-out: Mortality in % after 4 h, found): 20%

Compound: CC1(C)[C@H](C=C(Cl)Cl)[C@H]1C(=O)OCc1c(F)c(F)cc(F)c1F [(3A.46), transfluthrin]
- mortality at 4 ppm [2, 17]: 0%

Compound: N#Cc1nn(-c2c(Cl)cc(C(F)(F)F)cc2Cl)c(N)c1[S+]([O-])C(F)(F)F (stereo not shown) [(2B.2), fipronil]
- pest or weed control at 100 ppm ([5]; Alternaria solani, 72 h): 28%
- pest or weed control at 200 ppm ([5]; Alternaria solani, 72 h): 44%
- Efficacy in %, found ([6]; Table J2, 500 ppm a.i.): 0%
- pest or weed control at 100 ppm [1, 15]: 30%
- pest or weed control at 200 ppm [1, 13]: 47%
- pest or weed control at 200 ppm [7, 16]: 8%

Compound: CC1(C)C(C=C(Cl)Cl)C1C(=O)OC(C#N)c1ccc(F)c(Oc2ccccc2)c1 (stereo not drawn) [(3A.11), β-cyfluthrin]
- Mortality in % after 2 d, found ([9]; 4 ppm a.i., after 2 d): 40%

Compound: O=C1C=C(N(Cc2ccc(Cl)nc2)CC(F)F)CO1 [(27.16), 4-{[(6-chloropyridin-3-yl)methyl](2,2-difluoroethyl)amino}furan-2(5H)-one]
- pest or weed control at 200 ppm [1, 18]: 30%
- pest or weed control at 200 ppm [7, 16]: 8%
- Efficacy in %, found ([10]; 1000 ppm a.i.): 0%

Compound: CN/C(=N\[N+](=O)[O-])NCc1cnc(Cl)s1 [(4A.2), clothianidin]
- pest or weed control at 100 ppm ([5]; Alternaria solani, 72 h): 49%
- pest or weed control at 200 ppm ([5]; Alternaria solani, 72 h): 45%
- Efficacy in %, found ([6]; Table J2, 500 ppm a.i.): 0%
- pest or weed control at 100 ppm [1, 15]: 30%
- pest or weed control at 100 ppm [7, 16]: 0%
- pest or weed control at 200 ppm [7, 16]: 0%
- mortality at 4 ppm [4, 17]: 0%

Compound: CC(c1ccc(C(F)(F)F)nc1)S(C)(=O)=NC#N (stereo not shown) [(27.27), sulfoxaflor]
- pest or weed control at 100 ppm ([5]; Alternaria solani, 72 h): 0%
- pest or weed control at 200 ppm ([5]; Alternaria solani, 72 h): 51%
- pest or weed control at 100 ppm [7, 16]: 0%
- mortality at 0.8 ppm [2, 19]: 20%
- Efficacy in %, found ([3]; 200 ppm a.i.): 0%

Compound: CNC(=O)Oc1cc(C)c(SC)c(C)c1 [(1A.15), methiocarb]
- pest or weed control at 100 ppm ([5]; Alternaria solani, 72 h): 45%
- pest or weed control at 200 ppm ([5]; Alternaria solani, 72 h): 47%
- pest or weed control at 100 ppm ([1]; Phytophthora infestans, 72 h, read-out: Efficacy in %, found, Table I2, 100 ppm a.i.): 16%
- pest or weed control at 100 ppm [7, 16]: 4%
- mortality at 20 ppm [4, 14]: 35%

Compound: Cc1c(F)c(F)c(COC(=O)[C@@H]2[C@H](/C=C(\Cl)C(F)(F)F)C2(C)C)c(F)c1F (racemic) [(3A.43), tefluthrin]
- pest or weed control at 200 ppm [1, 18]: 0%
- pest or weed control at 100 ppm [7, 16]: 23%
- Efficacy in %, found ([10]; 500 ppm a.i.): 0%

Compound: CNC(=O)c1cc(Cl)cc(C)c1NC(=O)c1cc(Br)nn1-c1ncccc1Cl [(26.1), chloranthraniliprole (rynaxypyr)]
- pest or weed control at 100 ppm ([5]; Alternaria solani, 72 h): 37%
- pest or weed control at 200 ppm ([5]; Alternaria solani, 72 h): 37%
- Efficacy in %, found ([6]; Table J2, 500 ppm a.i.): 14%
- mortality at 4 ppm ([9]; Plutella xylostella, 24 h, 4 ppm a.i., after 1 d, read-out: Mortality in % after 1 d, found): 25%
- pest or weed control at 100 ppm [1, 15]: 32%
- pest or weed control at 100 ppm [7, 16]: 0%
- mortality at 0.8 ppm [2, 20]: 40%
- Efficacy in %, found ([3]; 100 ppm a.i.): 0%
- Efficacy in %, found ([3]; 200 ppm a.i.): 0%

Compound: CNC(=O)c1cc(C#N)cc(C)c1NC(=O)c1cc(Br)nn1-c1ncccc1Cl [(26.2), cyantraniliprole (cyazypyr)]
- pest or weed control at 100 ppm ([5]; Alternaria solani, 72 h): 28%
- pest or weed control at 100 ppm [1, 15]: 30%
- pest or weed control at 100 ppm [7, 16]: 0%
- pest or weed control at 200 ppm [7, 16]: 18%
- mortality at 4 ppm ([2]; 48 h, 4 ppm a.i., after 2 d, read-out: Mortality in % after 2 d, found): 50%
- Efficacy in %, found ([3]; 100 ppm a.i.): 0%
- Efficacy in %, found ([3]; 200 ppm a.i.): 0%
- mortality at 0.8 ppm ([4]; 72 h, 0.8 ppm a.i., after 3 d, read-out: Mortality in % after 3 d, found): 25%

Compound: abamectin [(6.1)]
- Efficacy in %, found ([5]; Table E2, 100 ppm a.i., 3 days after the inoculation): 32%
- Mortality in % after 1 d, found ([9]; 4 ppm a.i., after 1 d): 75%
- Efficacy in %, found ([7]; 100 ppm a.i.): 53%
- Efficacy in %, found ([7]; 200 ppm a.i.): 51%
- Efficacy in % 3 d after infestation, found ([11]; 0.25 mg a.i./seed): 4.8%

Compound: CS/C(C)=N\OC(=O)N(C)SN(C)C(=O)O/N=C(\C)SC [(1A.21), thiodicarb]
- pest or weed control at 200 ppm ([5]; Alternaria solani, 72 h): 52%
- Efficacy in %, found ([8]; 1000 ppm a.i.): 0%

Compound: O=[N+]([O-])NC1=NCCN1Cc1ccc(Cl)nc1 [(4A.4), imidacloprid]
- pest or weed control at 100 ppm ([5]; Alternaria solani, 72 h): 13%
- pest or weed control at 200 ppm ([5]; Alternaria solani, 72 h): 30%
- Efficacy in %, found [12]: 0%
- Efficacy in % 1 d after infestation, found ([11]; 0.25 mg a.i./seed): 0%
- mortality at 20 ppm ([4]; 24 h, 20 ppm a.i., after 1 d, read-out: Mortality in % after 1 d, found): 0%

Compound: CC1(C)C(C=C(Cl)Cl)C1C(=O)OC(C#N)c1ccc(F)c(Oc2ccccc2)c1 (stereo not shown) [(3A.10), cyfluthrin]
- Efficacy in %, found ([6]; Table J2, 500 ppm a.i.): 0%

Compound: spinosad [(5.2)]
- Efficacy in %, found ([6]; Table J1, 1000 ppm a.i.): 0%
- Mortality in % after 1 d, found ([9]; 4 ppm a.i., after 1 d): 70%
- Efficacy in %, found ([1]; Table I2, 100 ppm a.i.): 10%

Compound: Cn1c(=O)c2sc3c(=O)n(C)c(=O)c3sc2c1=O [(I-1), 2,6-dimethyl-1H,5H-[1,4]dithiino[2,3-c:5,6-c′]dipyrrole-1,3,5,7(2H,6H)-tetrone]
- pest or weed control at 12.5 ppm [5, 21]: 13%
- pest or weed control at 25 ppm [5, 21]: 54%
- pest or weed control at 12.5 ppm [5, 22]: 30%
- pest or weed control at 25 ppm [5, 22]: 50%
- pest or weed control at 50 ppm ([5]; Alternaria solani, 72 h, read-out: Efficacy in %, found, Table E2, 50 ppm a.i., 3 days after the inoculation): 58%
- Efficacy in %, found ([8]; 500 ppm a.i.): 29%
- Efficacy in %, found ([6]; Table J1, 1000 ppm a.i.): 43%
- Efficacy in %, found ([6]; Table J2, 500 ppm a.i.): 43%
- mortality at 200 ppm ([9]; Plutella xylostella, 24 h, after 1 d, read-out: Mortality in % after 1 d, found): 0%
- mortality at 200 ppm ([9]; Plutella xylostella, 48 h, after 2 d, read-out: Mortality in % after 2 d, found): 0%
- pest or weed control at 12.5 ppm ([1]; Phytophthora infestans, 72 h, read-out: Efficacy in %, found, Table I1, 12.5 ppm a.i.): 18%
- pest or weed control at 50 ppm [1, 13]: 43%
- pest or weed control at 50 ppm [1, 18]: 28%
- Efficacy in %, found [12]: 50%
- pest or weed control at 12.5 ppm [7, 16]: 33%
- pest or weed control at 50 ppm [7, 16]: 29%
- mortality at 200 ppm ([2]; after 4 h, read-out: Mortality in % after 4 h, found): 0%
- mortality at 200 ppm [2, 19]: 0%
- mortality at 200 ppm [2, 20]: 0%
- mortality at 200 ppm [2, 23]: 0%
- Efficacy in %, found ([3]; 25 ppm a.i.): 13%
- Efficacy in %, found ([3]; 50 ppm a.i.): 48%
- Efficacy in %, found ([10]; 500 ppm a.i.): 0%
- Efficacy in % 1 d after infestation, found ([11]; 1 mg a.i./seed): 0%
- Efficacy in % 3 d after infestation, found ([11]; 1 mg a.i./seed): 23.8%
- mortality at 200 ppm [4, 19]: 0%
- mortality at 200 ppm [4, 23]: 0%
